Reference: ChEMBL document CHEMBL1201862, “PubChem BioAssay data set” (2004)
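These data come from cells grown in 96-well plates and exposed to compound for 48 hours at five concentrations. GI50 = concentration required for 50% inhibition of growth.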 Activity calls are given as the source filed them. No stated cut-off is given here; in the data, active = GI50 up to about 1.1 µM and inactive = higher.

Tests used:
Test in all cases: NCI tumour cell line growth inhibition, 48 h
[1] = tested on: LXFL 529
[2] = tested on: NCI-H522
[3] = tested on: KM12
[4] = tested on: UACC-257
[5] = tested on: COLO 205
[6] = tested on: OVCAR-8
[7] = tested on: RPMI-8226
[8] = tested on: NCI-H460
[9] = tested on: DMS-273
[10] = tested on: SW-620
[11] = tested on: SK-MEL-28
[12] = tested on: TK-10
[13] = tested on: SR
[14] = tested on: EKVX
[15] = tested on: M14
[16] = tested on: Malme-3M
[17] = tested on: MOLT-4
[18] = tested on: SK-OV-3
[19] = tested on: HCT-15
[20] = tested on: NCI-H23
[21] = tested on: M19-MEL
[22] = tested on: SNB-78
[23] = tested on: HCC 2998
[24] = tested on: SN12C
[25] = tested on: CCRF-CEM
[26] = tested on: SF-539
[27] = tested on: DLD-1
[28] = tested on: IGROV-1
[29] = tested on: LOX IMVI
[30] = tested on: A549
[31] = tested on: UACC-62
[32] = tested on: HOP-62
[33] = tested on: UO-31
[34] = tested on: 786-0
[35] = tested on: U-251
[36] = tested on: HL-60
[37] = tested on: SNB-19
[38] = tested on: ACHN
[39] = tested on: HT-29
[40] = tested on: K562
[41] = tested on: HCT-116
[42] = tested on: DMS-114
[43] = tested on: SK-MEL-2
[44] = tested on: OVCAR-5
[45] = tested on: RXF 393
[46] = tested on: KM-20L2
[47] = tested on: HOP-92
[48] = tested on: SNB-75
[49] = tested on: HOP-18
[50] = tested on: SK-MEL-5
[51] = tested on: NCI-H226
[52] = tested on: A498
[53] = tested on: OVCAR-3
[54] = tested on: CAKI-1
[55] = tested on: OVCAR-4
[56] = tested on: SF-268
[57] = tested on: SF-295

CN(C)c1cccc(-c2cc(O)c3ccccc3n2)c1
GI50 [1]: 57.7 µM (inactive)
GI50 [2]: 24.2 µM (inactive)
GI50 [3]: 34.4 µM (inactive)
GI50 [4]: 31.9 µM (inactive)
GI50 [5]: 48.2 µM (inactive)
GI50 [6]: 75.9 µM (inactive)
GI50 [7]: 34.8 µM (inactive)
GI50 [8]: 13.6 µM (inactive)
GI50 [9]: 45.9 µM (inactive)
GI50 [10]: 37 µM (inactive)
GI50 [11]: 86.1 µM (inactive)
GI50 [12]: > 100 µM (inactive)
GI50 [13]: 45.5 µM (inactive)
GI50 [14]: > 100 µM (inactive)
GI50 [15]: 43.3 µM (inactive)
GI50 [16]: 31.7 µM (inactive)
GI50 [17]: 61.5 µM (inactive)
GI50 [18]: 68.1 µM (inactive)
GI50 [19]: 44.4 µM
GI50 [20]: 54.8 µM (inactive)
GI50 [21]: 76.7 µM (inactive)
GI50 [22]: 82 µM (inactive)
GI50 [23]: 40.4 µM (inactive)
GI50 [24]: 47.8 µM (inactive)
GI50 [25]: 41.7 µM (inactive)
GI50 [26]: 30.4 µM (inactive)
GI50 [27]: 26.8 µM (inactive)
GI50 [28]: 80.9 µM (inactive)
GI50 [29]: 71.4 µM (inactive)
GI50 [30]: 57.3 µM (inactive)
GI50 [31]: 42 µM (inactive)
GI50 [32]: 53.7 µM (inactive)
GI50 [33]: 47.6 µM (inactive)
GI50 [34]: 49.7 µM (inactive)
GI50 [35]: 55.8 µM (inactive)
GI50 [36]: 28.2 µM (inactive)
GI50 [37]: 39 µM (inactive)
GI50 [38]: > 100 µM (inactive)
GI50 [39]: 25.2 µM (inactive)
GI50 [40]: > 10 µM (inactive)

COc1ccccc1-n1c(C)nc2ccccc2c1=O
GI50 [1]: > 100 µM (inactive)
GI50 [41]: > 100 µM (inactive)
GI50 [42]: > 100 µM (inactive)
GI50 [43]: > 100 µM (inactive)
GI50 [44]: > 100 µM (inactive)
GI50 [2]: > 100 µM (inactive)
GI50 [45]: > 100 µM (inactive)
GI50 [3]: > 100 µM (inactive)
GI50 [46]: > 100 µM (inactive)
GI50 [4]: > 100 µM (inactive)
GI50 [47]: > 100 µM (inactive)
GI50 [5]: > 100 µM (inactive)
GI50 [6]: > 100 µM (inactive)
GI50 [8]: > 100 µM (inactive)
GI50 [48]: > 100 µM (inactive)
GI50 [9]: > 100 µM (inactive)
GI50 [10]: > 100 µM (inactive)
GI50 [11]: > 100 µM (inactive)
GI50 [49]: > 100 µM (inactive)
GI50 [12]: > 100 µM (inactive)
GI50 [50]: > 100 µM (inactive)
GI50 [51]: > 100 µM (inactive)
GI50 [13]: > 100 µM (inactive)
GI50 [14]: > 100 µM (inactive)
GI50 [15]: > 100 µM (inactive)
GI50 [16]: > 100 µM (inactive)
GI50 [52]: > 100 µM (inactive)
GI50 [17]: > 100 µM (inactive)
GI50 [18]: > 100 µM (inactive)
GI50 [19]: > 100 µM
GI50 [20]: > 100 µM (inactive)
GI50 [21]: > 100 µM (inactive)
GI50 [22]: > 100 µM (inactive)
GI50 [23]: > 100 µM (inactive)
GI50 [53]: > 100 µM (inactive)
GI50 [24]: > 100 µM (inactive)
GI50 [54]: > 100 µM (inactive)
GI50 [25]: > 100 µM (inactive)
GI50 [26]: > 100 µM (inactive)
GI50 [27]: > 100 µM (inactive)
GI50 [28]: > 100 µM (inactive)
GI50 [29]: > 100 µM (inactive)
GI50 [30]: > 100 µM (inactive)
GI50 [31]: > 100 µM (inactive)
GI50 [32]: > 100 µM (inactive)
GI50 [33]: > 100 µM (inactive)
GI50 [34]: > 100 µM (inactive)
GI50 [55]: > 100 µM (inactive)
GI50 [35]: > 100 µM (inactive)
GI50 [36]: > 100 µM (inactive)
GI50 [37]: > 100 µM (inactive)
GI50 [56]: > 100 µM (inactive)
GI50 [38]: > 100 µM (inactive)
GI50 [57]: > 100 µM (inactive)
GI50 [39]: > 100 µM (inactive)
GI50 [40]: > 100 µM (inactive)

COc1cc(C(C#N)NNC(=O)Cc2ccccc2)cc(OC)c1OC (centres undefined)
GI50 [1]: > 100 µM (inactive)
GI50 [41]: > 100 µM (inactive)
GI50 [42]: 99.1 µM (inactive)
GI50 [43]: > 100 µM (inactive)
GI50 [44]: > 100 µM (inactive)
GI50 [2]: > 100 µM (inactive)
GI50 [45]: > 100 µM (inactive)
GI50 [3]: > 100 µM (inactive)
GI50 [46]: > 100 µM (inactive)
GI50 [4]: > 100 µM (inactive)
GI50 [47]: 95.3 µM (inactive)
GI50 [5]: > 100 µM (inactive)
GI50 [6]: > 100 µM (inactive)
GI50 [7]: > 100 µM (inactive)
GI50 [8]: > 100 µM (inactive)
GI50 [48]: 35.5 µM (inactive)
GI50 [9]: > 100 µM (inactive)
GI50 [10]: > 100 µM (inactive)
GI50 [11]: > 100 µM (inactive)
GI50 [49]: > 100 µM (inactive)
GI50 [12]: > 100 µM (inactive)
GI50 [50]: > 100 µM (inactive)
GI50 [51]: > 100 µM (inactive)
GI50 [13]: > 100 µM (inactive)
GI50 [15]: > 100 µM (inactive)
GI50 [16]: > 100 µM (inactive)
GI50 [17]: > 100 µM (inactive)
GI50 [18]: > 100 µM (inactive)
GI50 [19]: > 100 µM
GI50 [20]: > 100 µM (inactive)
GI50 [21]: > 100 µM (inactive)
GI50 [22]: > 100 µM (inactive)
GI50 [53]: > 100 µM (inactive)
GI50 [24]: > 100 µM (inactive)
GI50 [54]: > 100 µM (inactive)
GI50 [25]: > 10 µM (inactive)
GI50 [26]: > 100 µM (inactive)
GI50 [27]: > 100 µM (inactive)
GI50 [28]: > 100 µM (inactive)
GI50 [29]: > 100 µM (inactive)
GI50 [30]: > 100 µM (inactive)
GI50 [31]: > 100 µM (inactive)
GI50 [32]: > 100 µM (inactive)
GI50 [33]: 72.3 µM (inactive)
GI50 [34]: > 100 µM (inactive)
GI50 [55]: > 100 µM (inactive)
GI50 [35]: > 100 µM (inactive)
GI50 [36]: > 100 µM (inactive)
GI50 [56]: > 100 µM (inactive)
GI50 [38]: > 100 µM (inactive)
GI50 [57]: > 100 µM (inactive)
GI50 [39]: > 100 µM (inactive)
GI50 [40]: > 100 µM (inactive)
